The text below walks through data of patent US12441703B2, “Carboxamides as modulators of sodium channels” (VERTEX PHARMACEUTICALS INCORPORATED, priority 2019, dated 2025).

Molecules are shown by their SMILES.

Chain of human NaV 1.8 (Q9Y5Y9 whole entry, looked up, the tested form may be a part): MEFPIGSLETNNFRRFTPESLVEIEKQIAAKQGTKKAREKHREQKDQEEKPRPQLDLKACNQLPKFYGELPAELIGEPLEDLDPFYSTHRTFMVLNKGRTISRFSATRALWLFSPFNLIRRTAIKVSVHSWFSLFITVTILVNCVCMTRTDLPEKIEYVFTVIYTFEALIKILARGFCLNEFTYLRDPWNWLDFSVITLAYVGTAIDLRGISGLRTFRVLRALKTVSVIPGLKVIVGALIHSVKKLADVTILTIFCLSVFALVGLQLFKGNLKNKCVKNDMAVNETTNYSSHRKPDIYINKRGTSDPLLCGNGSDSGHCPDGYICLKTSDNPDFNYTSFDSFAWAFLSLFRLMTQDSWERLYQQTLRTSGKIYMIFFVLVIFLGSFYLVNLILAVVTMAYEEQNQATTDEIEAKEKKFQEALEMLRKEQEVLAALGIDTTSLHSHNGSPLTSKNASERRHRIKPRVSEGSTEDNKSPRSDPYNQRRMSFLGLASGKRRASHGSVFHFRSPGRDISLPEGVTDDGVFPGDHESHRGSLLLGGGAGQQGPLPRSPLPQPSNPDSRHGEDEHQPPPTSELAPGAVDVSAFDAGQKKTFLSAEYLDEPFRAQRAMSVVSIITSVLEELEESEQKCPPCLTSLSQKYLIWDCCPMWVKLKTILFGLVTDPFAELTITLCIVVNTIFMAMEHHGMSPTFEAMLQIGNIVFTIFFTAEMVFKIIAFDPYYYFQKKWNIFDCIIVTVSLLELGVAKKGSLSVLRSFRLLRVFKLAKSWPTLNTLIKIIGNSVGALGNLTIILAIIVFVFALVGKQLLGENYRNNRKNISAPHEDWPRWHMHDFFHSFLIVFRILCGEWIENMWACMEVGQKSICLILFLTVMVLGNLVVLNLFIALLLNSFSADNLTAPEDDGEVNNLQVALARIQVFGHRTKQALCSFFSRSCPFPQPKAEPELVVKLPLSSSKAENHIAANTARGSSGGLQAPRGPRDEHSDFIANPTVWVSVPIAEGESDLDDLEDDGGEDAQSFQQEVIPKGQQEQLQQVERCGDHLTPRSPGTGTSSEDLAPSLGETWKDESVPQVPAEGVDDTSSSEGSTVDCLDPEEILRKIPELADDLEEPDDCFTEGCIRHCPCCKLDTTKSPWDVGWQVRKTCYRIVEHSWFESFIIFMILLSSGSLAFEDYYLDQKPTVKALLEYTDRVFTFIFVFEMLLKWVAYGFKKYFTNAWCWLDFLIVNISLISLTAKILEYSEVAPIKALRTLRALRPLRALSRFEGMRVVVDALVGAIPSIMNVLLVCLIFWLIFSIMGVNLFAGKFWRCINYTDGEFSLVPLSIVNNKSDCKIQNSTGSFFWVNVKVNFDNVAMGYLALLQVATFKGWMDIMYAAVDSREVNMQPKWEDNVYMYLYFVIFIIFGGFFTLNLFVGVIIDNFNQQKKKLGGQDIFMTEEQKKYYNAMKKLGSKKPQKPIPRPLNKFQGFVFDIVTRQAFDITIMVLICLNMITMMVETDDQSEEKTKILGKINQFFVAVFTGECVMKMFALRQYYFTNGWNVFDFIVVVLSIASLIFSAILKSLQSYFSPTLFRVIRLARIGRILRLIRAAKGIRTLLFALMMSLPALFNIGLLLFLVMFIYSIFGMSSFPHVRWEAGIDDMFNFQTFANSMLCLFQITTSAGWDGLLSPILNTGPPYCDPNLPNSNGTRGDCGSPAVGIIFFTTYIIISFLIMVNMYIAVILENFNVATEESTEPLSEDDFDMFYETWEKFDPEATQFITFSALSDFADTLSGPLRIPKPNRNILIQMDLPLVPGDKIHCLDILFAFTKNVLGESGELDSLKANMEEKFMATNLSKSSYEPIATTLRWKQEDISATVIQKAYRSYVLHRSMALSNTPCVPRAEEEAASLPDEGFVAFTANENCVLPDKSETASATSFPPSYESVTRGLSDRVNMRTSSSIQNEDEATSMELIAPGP

The assay has as its target human NaV 1.8 (Homo sapiens, UniProt Q9Y5Y9). The assay is described as follows: E-VIPR assay for detecting and measuring NaV inhibition properties. The format is cell-based. The following applies: E-VIPR assay conducted in the presence of human serum; HEK cells expressing truncated human NaV 1.8; read-out: IC50. In outline: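 Membrane-potential (coumarin/oxonol) readout after 10 s of 10 Hz biphasic electrical stimulation on E-VIPR. Compounds: 11-point 3-fold dilutions, […], 0.625% DMSO, 30 min at room temperature, human serum optional. Cells: HEK expressing truncated human NaV1.8 co-transduced with KIR2.1.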
What is called IC50 is the concentration needed to halve the response being measured. On to `[2H]C([2H])([2H])Oc1cc(OC(F)(F)F)ccc1Oc1cc(C2=COCC2)cc(F)c1C(=O)Nc1ccnc(C(N)=O)c1` [Compound 1008, 4-[[4-(2,3-dihydrofuran-4-yl)-2-fluoro-6-[2-(trideuteriomethoxy)-4-(trifluoromethoxy)phenoxy]benzoyl]amino]pyridine-2-carboxamide], for which the IC50 was found to be 21 nM.

Turning to `[2H]C([2H])([2H])Oc1cc(OC(F)(F)F)ccc1Oc1cc(C2=CCC(OC)CC2)cc(F)c1C(=O)Nc1ccnc(C(N)=O)c1` (centres unmarked) [Compound 1009, 4-[[2-fluoro-4-(4-methoxycyclohexen-1-yl)-6-[2-(trideuteriomethoxy)-4-(trifluoromethoxy)phenoxy]benzoyl]amino]pyridine-2-carboxamide], the IC50 is 170 nM.

As for `[2H]C([2H])([2H])Oc1cc(OC(F)(F)F)ccc1Oc1cc(C2=CCCC2)cc(F)c1C(=O)Nc1ccnc(C(N)=O)c1` [Compound 1010, 4-[[4-(cyclopenten-1-yl)-2-fluoro-6-[2-(trideuteriomethoxy)-4-(trifluoromethoxy)phenoxy]benzoyl]amino]pyridine-2-carboxamide], the IC50 came out at 13 nM.

Take `[2H]C([2H])([2H])Oc1cc(OC(F)(F)F)ccc1Oc1cc(-c2cccc(C#N)c2)cc(F)c1C(=O)Nc1ccnc(C(N)=O)c1` [Compound 1011, 4-[[4-(3-cyanophenyl)-2-fluoro-6-[2-(trideuteriomethoxy)-4-(trifluoromethoxy)phenoxy]benzoyl]amino]pyridine-2-carboxamide]: the IC50 came to 470 nM.

On to `[2H]C([2H])([2H])Oc1cc(OC(F)(F)F)ccc1Oc1cc(-c2ccc(C#N)cc2)cc(F)c1C(=O)Nc1ccnc(C(N)=O)c1` [Compound 1012, 4-[[4-(4-cyanophenyl)-2-fluoro-6-[2-(trideuteriomethoxy)-4-(trifluoromethoxy)phenoxy]benzoyl]amino]pyridine-2-carboxamide], for which the IC50 was found to be 190 nM.

For the molecule `COc1cc(OC(F)(F)F)ccc1Oc1cc(C2=CCC(C(F)(F)F)CC2)cc(F)c1C(=O)Nc1ccnc(C(N)=O)c1` (centres unmarked) [Compound 1013, 4-[[2-fluoro-6-[2-methoxy-4-(trifluoromethoxy)phenoxy]-4-[4-(trifluoromethyl)cyclohexen-1-yl]benzoyl]amino]pyridine-2-carboxamide], the 50% inhibitory concentration (IC50) is 13 nM.

For `COc1cc(OC(F)(F)F)ccc1Oc1cc(C2=CC3CCC2C3)cc(F)c1C(=O)Nc1ccnc(C(N)=O)c1` (centres unmarked) [Compound 1014, 4-[[4-(2-bicyclo[2.2.1]hept-2-enyl)-2-fluoro-6-[2-methoxy-4-(trifluoromethoxy)phenoxy]benzoyl]amino]pyridine-2-carboxamide], the IC50 was found to be 33 nM.

Take `COc1cc(OC(F)(F)F)ccc1Oc1cc(C2=CCC3(CC2)OCCO3)cc(F)c1C(=O)Nc1ccnc(C(N)=O)c1` [Compound 1015, 4-[[4-(1,4-dioxaspiro[4.5]dec-7-en-8-yl)-2-fluoro-6-[2-methoxy-4-(trifluoromethoxy)phenoxy]benzoyl]amino]pyridine-2-carboxamide]: the IC50 was determined as 360 nM.

As to `COc1cc(OC(F)(F)F)ccc1Oc1cc(C2=CCC(C(C)(C)C)CC2)cc(F)c1C(=O)Nc1ccnc(C(N)=O)c1` (centres unmarked) [Compound 1016, 4-[[4-(4-tert-butylcyclohexen-1-yl)-2-fluoro-6-[2-methoxy-4-(trifluoromethoxy)phenoxy]benzoyl]amino]pyridine-2-carboxamide], the IC50 was found to be 60 nM.

As to `[2H]C([2H])([2H])Oc1cc(OC(F)(F)F)ccc1Oc1cc(C2CCOC2)cc(F)c1C(=O)Nc1ccnc(C(N)=O)c1` (centres unmarked) [Compound 1018, 4-[[2-fluoro-4-tetrahydrofuran-3-yl-6-[2-(trideuteriomethoxy)-4-(trifluoromethoxy)phenoxy]benzoyl]amino]pyridine-2-carboxamide], the concentration for half-maximal inhibition (IC50) came out at 130 nM.

With `[2H]C([2H])([2H])Oc1cc(OC(F)(F)F)ccc1Oc1cc(C2CCOCC2)cc(F)c1C(=O)Nc1ccnc(C(N)=O)c1` [Compound 1019, 4-[[2-fluoro-4-tetrahydropyran-4-yl-6-[2-(trideuteriomethoxy)-4-(trifluoromethoxy)phenoxy]benzoyl]amino]pyridine-2-carboxamide], the concentration for half-maximal inhibition (IC50) was found to be 79 nM.
